Here are results for eleven compounds from patent US7754718B2 (priority 2004, dated 2010).

A short description of data set [1]: Cell cytotoxicity assay on MT-2 cells. The data set is classed as cell-based. The conditions noted are these: human, read-out: Cytotoxity (ID50, μM) MT-2. Here is the method:
(§1) Cytotoxicities of test compounds on MT-2 (Mellors et al., 1992 Mol. Pharmacol. 41:446-451) and CEM (Grove et al., 1995, Cancer Res. 55:3008-3011) cells were determined according to the previously reported procedures. Hepg2 cells were seeded at a density of 10^4 cells/ml/well in 24-well plates and cultured in MEME supplemented with 10% FBS at 37° C. and 5% CO2. Each test compound at different concentrations was added on the second day of the culture and the cells were incubated for another 3 days. At the end of the incubation period, the medium was removed and 0.5 ml of 0.5% methylene blue in 50% ethanol (v/v) was added to each well and set at room temperature for 30-60 minutes. The methylene blue was removed; the plates were washed with water and allowed to air dry. Once dry, 1% sarcosyl was added to dissolve the stained cell layer. The absorbance at 595 nm was measured with a microplate reader (Molecular Devices Corp. Sunnyvale, Calif.). The cytotoxicity to CEM cell was calculated as described previously (Grove et al., 1995, Cancer Res. 55 (14): 3008-3011).

The next data set relates to EBV. Kind of data set: In vitro antiviral assay for EBV. The data set is classed as cell-based, Epstein-Barr Virus. The conditions noted are these: human gammaherpesvirus 4, read-out: Antiviral Activities (EC50, μM) EBV. On the procedure: (§2) The antiviral assays for HBV, (Doong et al., 1991, Proc. Natl. Acad. Sci. U.S.A. 88:8495-8499) HSV-1, (Bastow et al., 1983, Antimicrob. Agents Chemother. 23: 914-917) HSV-2, (Bastow et al., 1983, Antimicrob. Agents Chemother. 23:914-917) EBV, (Yao et al., 1993, Antimicrob. Agents Chemother. 37:1420-1425), CMV (Andreoni et al., 2002, J. Med. Virol. 67:33-40) and HIV (Mellors et al., 1992, Mol. Pharmacol. 41: 446-451) were performed according to the previously reported procedures. Anti-HCV activities were tested in Huh-Luc/neo cell line. Cells were seeded into 48-well plates and grown until confluent. Different concentrations of drugs were added into media (DMEM, 10% dFBS) and incubated for 3 days. At the end of 3-day treatment, medium were removed and 50 μl of Passive lysis buffer (Promega) were added. Cell lysate was shaken at room temperature for 15 min. 30 μl/well of cell lysate was transferred to another 96-well plate, 100 μl/well of luciferase activity assay substrate was added into plate and read by a luminometer (Amersham) immediately.

The next data set has as its system HSV-2. Kind of data set: In vitro antiviral assay for HSV-2. In kind it is cell-based, Herpes Simplex Virus 2. As to conditions: for EC50: Human alphaherpesvirus 2, read-out: Antiviral Activities (EC50, μM) HSV-2. On the procedure:
as §2

The next data set deals with HIV. Kind of data set: In vitro antiviral assay for HIV. The conditions noted are these: Human immunodeficiency virus 1, read-out: Antiviral Activities (EC50, μM) HIV, in vitro; (T) after a value means toxic. In kind it is cell-based, human immunodeficiency virus. On the procedure: as §2
For a further data set, the system named is CMV. The data set is described as follows: In vitro antiviral assay for CMV. In kind it is cell-based, cytomegalovirus. The conditions noted are these: Human betaherpesvirus 5, read-out: Antiviral Activities (EC50, μM) CMV. Here is the method:
as §2

A short description of data set [2]: Cell cytotoxicity assay on CEM cells. In kind it is cell-based. The conditions noted are these: human, read-out: Cytotoxity (ID50, μM) CEM. On the procedure:
as §1

A further data set relates to HCV. Kind of data set: Anti-HCV activity in Huh-Luc/neo cell line, luciferase activity after 3-day treatment. The data set is classed as cell-based, Hepatitis C virus. The conditions noted are these: Hepatitis C virus, 72 h, Huh-Luc/neo cells, 3 days; for EC50: given as a bound only, read-out: Antiviral Activities (EC50, μM) HCV. On the procedure:
as §2

For another data set, the system named is HBV. Kind of data set: In vitro antiviral assay for HBV (Table 1). In kind it is cell-based, Hepatitis B virus. The conditions noted are these: Hepatitis B virus, read-out: Antiviral Activities (EC50, μM) HBV. Here is the method:
as §2

The subject of the next data set is HSV-1. The data set is described as follows: In vitro antiviral assay for HSV-1. In kind it is cell-based, Herpes Simplex Virus 1. As to conditions: for EC50: Human alphaherpesvirus 1, read-out: Antiviral Activities (EC50, μM) HSV-1. On the procedure: as §2
Setting [3] is: read-out: HCV percent of inhibition.

For orientation: EC50 means the concentration needed to bring the measured effect to its halfway point. The melting point is the temperature, or range, at which the solid turns liquid. In general, inhibition refers to the drop in the measured response relative to a control, in per cent.

Where only a bound is given, the exact number is not on record here.

For `O=C1OC(=O)c2c1cc1ccc3c(c1c2-c1ccc2c(c1)OCO2)OCO3` [Compound 1, 10-Benzo[1,3]dioxol-5-yl-furo[3′,4′:6,7]naphtho[1,2-d][1,3]dioxole-7,9-dione], the IC50 in data set [1] is greater than 100 µM; in data set [2], greater than 50 µM. The EC50 is greater than 20 µM in the data set with EBV; greater than 50 µM with HSV-2; greater than 100 µM in the data set on HIV; 17.6 µM in the data set with CMV; greater than 10 µM with HCV; greater than 10 µM in the data set on HBV. In the data set on HSV-1, the EC50 was greater than 50 µM.

`O=C([O-])c1cc2ccc3c(c2c(-c2ccc4c(c2)OCO4)c1CO)OCO3.[Na+]` [Compound 3, 9-Benzo[1,3]dioxol-5-yl-8-hydroxymethyl-naphtho[1,2-d][1,3]dioxole-7-carboxylic acid monosodium salt] gave a melting point of 128 to 130 °C. In addition, the IC50 in data set [1] was found to be 10 µM. In addition, in the data set with EBV, the EC50 was greater than 20 µM. Moreover, the EC50 in the data set with HSV-2 came out at 25 µM. In addition, in the data set on HIV, the EC50 is greater than 10 µM. In the data set on CMV, the EC50 is 2.5 µM. For the same compound, in [2], the IC50 amounted to 30 µM. Also, in the data set with HCV (setting [3]), the inhibition at 10 µM was 25%. The EC50 in the data set with HBV is 3.4 µM. The EC50 in the data set with HSV-1 worked out at 9 µM.

For `O=C(NCCCOCc1ccccc1)c1cc2ccc3c(c2c(-c2ccc4c(c2)OCO4)c1COCc1ccccc1)OCO3` [Compound 8, 9-Benzo[1,3]dioxol-5-yl-8-benzyloxymethyl-naphtho[1,2-d][1,3]dioxole-7-carboxylic acid (3-benzyloxy-propyl)-amide], the results for the IC50 in [1] and in [2] were greater than 100 µM and 10 µM, respectively. In addition, the EC50 in the data set with EBV is greater than 15 µM; with HSV-2, greater than 25 µM; in the data set with HIV, greater than 100 µM; in the data set with CMV, 3.7 µM; with HCV, greater than 10 µM; in the data set with HBV, greater than 10 µM. In addition, the EC50 with HSV-1 was greater than 25 µM.

Take `NC(=O)c1cc2ccc3c(c2c(-c2ccc4c(c2)OCO4)c1C(=O)O)OCO3` [Compound 12, 9-Benzo[1,3]dioxol-5-yl-7-carbamoyl-naphtho[1,2-d][1,3]dioxole-8-carboxylic acid]: the IC50 in data set [1] came to 5 µM; in [2], 8.4 µM. The EC50 with EBV is 9 µM; in the data set on HSV-2, less than 0.1 µM; with HIV, greater than 5 µM; in the data set with CMV it was 0.45 µM; in the data set with HBV, 0.8 µM; with HSV-1, 0.15 µM. Moreover, the “times more potent than the reference drug acylclovir against HSV-2” value in the data set with HSV-2 (ratio of EC50 values) was roughly 210 times. Also, the inhibition at 3 µM in the data set with HCV (at 3 μM, read-out: HCV percent of inhibition) was found to be 58%. Moreover, in the data set with HSV-1 (ratio of EC50 values), the “times more potent than the reference drug acylclovir against HSV-1” value was “about 140 times”.

For the compound `O=C1c2cc3ccc4c(c3c(-c3ccc5c(c3)OCO5)c2C(=O)N1O)OCO4` [Compound 24, 10-Benzo[1,3]dioxol-5-yl-8-hydroxy-1,3-dioxa-8-aza-dicyclopenta[a,g]naphthalene-7,9-dione], the melting point is 255 °C (dec.). Also, in data set [1], the IC50 was determined as 16 µM. In addition, the EC50 in the data set with EBV is greater than 5 µM. In addition, in the data set on HSV-2, the EC50 was greater than 30 µM. Moreover, in the data set on HIV, the EC50 is greater than 16 µM. Also, the EC50 with CMV stood at 4.1 µM. For the same compound, the IC50 in [2] turned out to be 17 µM. In addition, the EC50 with HCV was greater than 10 µM. Moreover, in the data set with HBV, the EC50 is greater than 5 µM. For the same compound, in the data set on HSV-1, the EC50 is greater than 30 µM.

`O=C1c2cc3ccc4c(c3c(-c3ccc5c(c3)OCO5)c2C(=O)N1CCCO)OCO4` [Compound 29, 10-Benzo[1,3]dioxol-5-yl-8-(3-hydroxy-propyl)-1,3-dioxa-8-aza-dicyclopenta[a,g]naphthalene-7,9-dione] came in with a melting point of 150 to 152 °C. Also, in data set [1], the IC50 is 22 µM. Moreover, in the data set on EBV, the EC50 was greater than 5 µM. Also, the EC50 in the data set with HSV-2 is greater than 30 µM. In the data set with HIV, the EC50 is greater than 22 µM. In addition, the EC50 in the data set on CMV amounted to 8.1 µM. In [2], the IC50 is 27 µM. In the data set on HCV, the EC50 is greater than 10 µM. For the same compound, the EC50 in the data set on HBV was greater than 5 µM. Besides, the EC50 in the data set with HSV-1 was greater than 30 µM.

For `O=C1OCc2c1cc1c(Br)cc3c(c1c2-c1ccc2c(c1)OCO2)OCO3` [Compound 38, 10-Benzo[1,3]dioxol-5-yl-5-bromo-9H-furo[3′,4′:6,7]naphtho[1,2-d][1,3]dioxol-7-one], the melting point was 256 °C (dec.). Further, the IC50 in data set [1] was greater than 100 µM. Further, the EC50 in the data set with EBV was greater than 15 µM. Moreover, in the data set on HSV-2, the EC50 is greater than 50 µM. Besides, the EC50 in the data set with HIV is greater than 100 µM. Moreover, the IC50 in data set [2] came to 100 µM. Besides, the EC50 in the data set with HCV was greater than 10 µM. Besides, the EC50 with HBV was greater than 60 µM. Moreover, the EC50 in the data set with HSV-1 was greater than 50 µM.

With `O=C1OCc2c1cc1c(I)cc3c(c1c2-c1ccc2c(c1)OCO2)OCO3` [Compound 39, 10-Benzo[1,3]dioxol-5-yl-5-iodo-9H-furo[3′,4′:6,7]naphtho[1,2-d][1,3]dioxol-7-one], the melting point is 255 °C (dec.). Also, the IC50 in [1] was 80 µM. The EC50 with EBV was greater than 10 µM. Moreover, the EC50 in the data set with HSV-2 was greater than 25 µM. Further, the EC50 in the data set with HIV is greater than 80 µM. Besides, the IC50 in data set [2] came out at 70 µM. In addition, in the data set on HCV, the EC50 was greater than 10 µM. Further, the concentration giving a half-maximal response (EC50) with HBV was greater than 40 µM. For the same compound, the EC50 in the data set on HSV-1 was greater than 25 µM.

`O=C1NCc2c1cc1c(Br)cc3c(c1c2-c1ccc2c(c1)OCO2)OCO3` [Compound 40, 10-Benzo[1,3]dioxol-5-yl-5-bromo-8,9-dihydro-1,3-dioxa-8-aza-dicyclopenta[a,g]naphthalen-7-one]: the melting point is 285 °C (dec.). Moreover, the IC50 in data set [1] stood at 54 µM. Also, in the data set with EBV, the EC50 is greater than 20 µM. Also, in the data set on HSV-2, the EC50 is greater than 20 µM. The half-maximal effective concentration (EC50) in the data set with HIV was greater than 54 µM. For the same compound, in [2], the IC50 worked out at 38 µM. The inhibition at 10 µM with HCV (setting [3]) is 32%. Also, the EC50 with HBV was greater than 20 µM. In the data set with HSV-1, the EC50 is 6.5 µM.

`O=c1[nH][nH]c(=O)c2c(-c3ccc4c(c3)OCO4)c3c4c(cc(Cl)c3cc12)OCO4` [Compound 41, 11-Benzo[1,3]dioxol-5-yl-5-chloro-8,9-dihydro-1,3-dioxa-8,9-diaza-cyclopenta[a]anthracene-7,10-dione]: the melting point was 316 °C (dec.). In [1], the IC50 worked out at 30 µM. Moreover, the EC50 with EBV is greater than 20 µM. The EC50 in the data set with HSV-2 is greater than 40 µM. Besides, the EC50 in the data set with HIV was greater than 30 µM. Also, in data set [2], the IC50 was greater than 100 µM. Moreover, the inhibition at 10 µM with HCV (setting [3]) turned out to be 60%. The EC50 with HBV was greater than 10 µM. Further, in the data set with HSV-1, the EC50 amounted to 7 µM.

In the case of `O=c1[nH][nH]c(=O)c2c(-c3ccc4c(c3)OCO4)c3c4c(cc(I)c3cc12)OCO4` [Compound 43, 11-Benzo[1,3]dioxol-5-yl-5-iodo-8,9-dihydro-1,3-dioxa-8,9-diaza-cyclopenta[a]anthracene-7,10-dione], the melting point was 300 °C (dec.). Further, the IC50 in data set [1] was found to be 35 µM. Also, the EC50 with EBV is greater than 20 µM. In the data set with HSV-2, the EC50 is greater than 40 µM. The EC50 in the data set with HIV was 2 µM. The IC50 in data set [2] stood at 40 µM. The inhibition at 10 µM with HCV (setting [3]) came out at 52%. Besides, the EC50 in the data set on HBV was greater than 10 µM. Moreover, in the data set on HSV-1, the EC50 is greater than 40 µM.
